Source: PMC8073907, “Peptide targeting of lysophosphatidylinositol-sensing GPR55 for osteoclastogenesis tuning” (Cell Communication and Signaling : CCS, 2021)

System: Gpr55 mRNA in RAW264.7 cells
Test: Modulation of Gpr55 mRNA levels by receptor ligands in RANKL-treated RAW264.7 cells
Type: cell-based, murine
Conditions: 72 h; 0.5 μM ML-191, 0.5 μM CBD, 1 μM soybean LPI; versus RANKL alone
Protocol: Total RNA was extracted using RNeasy isolation kits, cDNAs were obtained using QuantiTect Reverse Transcription kits, and real-time PCRs were performed with QuantiTect SYBR Green PCR kits (all from Qiagen, Hilden, Germany), according to the manufacturer instructions. The primers used for the real-time PCRs and their annealing temperatures are listed in the Additional file 1: Table S1. Human hypoxanthine phosphoribosyltransferase 1 (HPRT1) or murine β2-microglobulin were followed as housekeeping genes. The real-time PCR programme consisted of an initial 15 min at 95 °C, and then 45 cycles as follows: 94 °C for 15 s, annealing temperature of each primer for 30 s, and 72 °C for 30 s. The real-time PCR machine used was a LightCycler 480 Instrument II (Roche, Indianapolis, IN, USA).
For the osteoclastogenesis in-vitro assay, RAW264.7 cells were plated in differentiation medium (α-MEM with 10% heat-inactivated FBS, 2 mM L-glutamine, 100 U/mL penicillin, and 100 ug/mL streptomycin) at a density of 5 × 10^3 cells/well in 24-well plates on coverslips for morphological analysis, or at 2 × 10^4 cells/well in six-well plates for RNA extraction. Twenty-four hours later and every 48 h, the medium was replaced and the cells were treated with 15–30 ng/mL RANKL with DMSO and/or PBS as carriers, or with GPR55 antagonists/ agonists (0.5 µM ML-191, 30 µM O1918, 0.5 µM CBD, 0.5 μM CID16020046 1 µM soybean LPI, 1 μM ML-184), or with the peptides (150 nM peptide-P1; or the irrelevant peptide, Irr_P). Twenty-four hours after the last addition, the cells were fixed with 4% paraformaldehyde for morphological analyses or harvested for RNA extraction (see above).

Q: How did the “further enhancement of RANKL-stimulated Gpr55 mRNA levels” value turn out when lysophosphatidylinositol [LPI] was run?
A: The value was 0.5 -fold.
